Measured values as given in US20090082423A1, “SOLUBLE EPOXIDE HYDROLASE INHIBITORS” (Arete Therapeutics, Inc., priority 2007, published 2009).

Experiments:
[1] = system: soluble epoxide hydrolase (sEH); test: Fluorescent assay for mouse and human soluble epoxide hydrolase (CMNPC substrate); format: biochemical; details: Conc 200 nM; recombinant sEH, CMNPC 5 μM, 30° C.; mouse or human enzyme not stated
Source text: Fluorescent Assay for Mouse and Human Soluble Epoxide Hydrolase
Recombinant mouse sEH (MsEH) and human sEH (HsEH) were produced in a baculovirus expression system as previously reported. Grant et al., J. Biol. Chem., 268:17628-17633 (1993); Beetham et al., Arch. Biochem. Biophys., 305:197-201 (1993). The expressed proteins were purified from cell lysate by affinity chromatography. Wixtrom et al., Anal. Biochem., 169:71-80 (1988). Protein concentration was quantified using the Pierce BCA assay using bovine serum albumin as the calibrating standard. The preparations were at least 97% pure as judged by SDS-PAGE and scanning densitometry. They contained no detectable esterase or glutathione transferase activity which can interfere with the assay. The assay was also evaluated with similar results in crude cell lysates or homogenate of tissues.
The IC50s for each inhibitor were according to the following procedure:
Cyano(2-methoxynaphthalen-6-yl)methyl (3-phenyloxiran-2-yl)methyl carbonate (CMNPC; Jones P. D. et. al.; Analytical Biochemistry 2005; 343: pp. 66-75)
Bis/Tris HCl 25 mM pH 7.0 containing 0.1 mg/mL of BSA (buffer A)
CMNPC at 0.25 mM in DMSO.
Mother solution of enzyme in buffer A (Mouse sEH at 6 μg/mL and Human sEH at 5 μg/mL).
Inhibitor dissolved in DMSO at the appropriate concentration.
In a black 96 well plate, fill all the wells with 150 μL of buffer A.
Add 2 μL of DMSO in well A2 and A3, and then add 2 μL of inhibitor solution in A1 and A4 through A12.
Add 150 μL of buffer A in row A, then mix several time and transfer 150 μL to row B. Repeat this operation up to row H. The 150 μL removed from row H go to the trash.
Add 20 μL of buffer A in column 1 and 2, then add 20 μL of enzyme solution to column 3 to 12.
Incubate the plate for 5 minutes in the plate reader at 30° C.
During incubation prepare the working solution of substrate by mixing 3.68 mL of buffer A (4×0.920 mL) with 266 μL (2×133 μL) of substrate solution).
At t=0, add 30 μL of working substrate solution with multi-channel pipette labeled “Briggs 303” and start the reading ([S]final: 5 μM).
Read with ex: 330 nm (20 nm) and em: 465 nm (20 nm) every 30 second for 10 minutes. The velocities are used to analyze and calculate the IC50s.

Structure (SMILES)	% Inh (percent inhibition) [1] [%]	melting point [°C]
CC1(C)CC(NC(=O)Nc2ccc(C(F)(F)F)cc2)CC(C)(C)C1=O [Compound 5, 1-(3,3,5,5-tetramethyl-4-oxocyclohexyl)-3-(4-(trifluoromethyl)phenyl)urea]	98	152 to 153
O=C(Nc1ccc(C(F)(F)F)cc1)NC1CCS(=O)(=O)CC1 [Compound 4, 1-(1,1-dioxo-tetrahydro-2H-thiopyran-4-yl)-3-(4-(trifluoromethyl)phenyl)urea]	92	196 to 198
O=C(Nc1ccc(C(F)(F)F)cc1)NC1CCOCC1 [Compound 3, 1-(tetrahydro-2H-pyran-4-yl)-3-(4-(trifluoromethyl)phenyl)urea]	91	196 to 198
O=C(NCC1CCOCC1)Nc1ccc(C(F)(F)F)cc1 [Compound 2, 1-((tetrahydro-2H-pyran-4-yl)methyl)-3-(4-(trifluoromethyl)phenyl)urea]	70	148 to 149
CC1(C)CC(NC(=O)NC23CC4CC(CC(C4)C2)C3)CC(C)(C)C1=O [Compound 6, 1-adamantan-1-yl-3-(3,3,5,5-tetramethyl-4-oxocyclohexyl)urea]	100	234 to 238
O=C(NCC1CCOCC1)NC12CC3CC(CC(C3)C1)C2 [Compound 1, 1-adamantan-1-yl-3-((tetrahydro-2H-pyran-4-yl)methyl)urea]	89	196 to 198

Further lines, results first:

% Inh (percent inhibition) [1] [%]	melting point [°C]	Structure (SMILES)
90	239 to 242	O=C(NC1CCOCC1)NC12CC3CC(CC(C3)C1)C2 [Compound 8, 1-adamantan-1-yl-3-(tetrahydro-2H-pyran-4-yl)urea]
82	244 to 246	O=C(NC1CCS(=O)(=O)CC1)NC12CC3CC(CC(C3)C1)C2 [Compound 7, 1-adamantan-1-yl-3-(1,1-dioxo-tetrahydro-2H-thiopyran-4-yl)urea]
